Type in all cases: cell-based
For experiment [1], the target named is T1, human RXRα ligand binding domain (Gal4 hybrid receptor) (Homo sapiens, UniProt P19793).
T1 construct: expressed in transfected cells; host or cells: HEK293T
T1 sequence (P19793 227-458 limits assumed): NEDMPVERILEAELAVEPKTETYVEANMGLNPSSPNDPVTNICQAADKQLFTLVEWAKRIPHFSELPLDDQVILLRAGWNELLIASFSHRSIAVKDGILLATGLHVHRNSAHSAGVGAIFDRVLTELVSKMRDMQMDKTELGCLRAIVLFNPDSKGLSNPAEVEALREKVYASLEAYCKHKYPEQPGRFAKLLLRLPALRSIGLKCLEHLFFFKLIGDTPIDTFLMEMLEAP
The experiment in a line: Gal4 hybrid reporter gene assay RXRα. The note with it: HEK293T cells, n ≥ 4, read-out: RXRα EC50 ± SEM. On the procedure:
(§1) The 20 top-ranked synthetic compounds were selected and tested in vitro for their modulatory activity on RXR (Supplementary Table 1). Compounds were tested in specific hybrid reporter gene assays for RXRα, RXRβ and RXRγ modulation[39]–[41]. These assays rely on a constitutively expressed hybrid receptor composed of the respective human RXR ligand binding domain and the DNA binding domain of the Gal4 receptor from yeast. A Gal4 responsive firefly luciferase was used as reporter gene and constitutively expressed renilla luciferase served as internal control for transfection efficiency and test compound toxicity. All selected compounds were tested at 50 µM concentration on RXRα and for active compounds (Supplementary Fig. 1), dose response curves were recorded on all three RXR subtypes.
(§2) The Gal4 hybrid reporter gene assays were conducted as reported previously[39]–[41]. pFA-CMV-based constructs comprising the ligand binding domain of the human nuclear receptor in question were used as expression plasmids for the chimera receptors. pFR-Luc (Stratagene) served as reporter plasmid and pRL-SV40 (Promega) for normalization of transfection efficiency and cell growth. The assays were conducted in 96-well format in HEK293T cells that were cultured as described previously[39]–[41]. Transient transfection was carried out using Lipofectamine LTX reagent (Invitrogen) according to the manufacturer’s protocol. After transfection and incubation with test compounds (12–14 h), cells were assayed for luciferase activity using Dual-Glo™ Luciferase Assay System (Promega) according to the manufacturer’s protocol. Luminescence was measured with an Infinite M200 luminometer (Tecan Deutschland GmbH). All hybrid assays were validated with reference agonists (PPARα: GW7647; PPARγ: pioglitazone; PPARδ: L165,041; LXRα/β: T0901317; FXR: GW4064; RXRs: bexarotene; RARs: tretinoin; VDR: calcitriol; CAR: CITCO; PXR: SR12813) which yielded EC50 values in agreement with literature. The assays were conducted in duplicates with at least two independent repeats and for active compounds repeated without hybrid receptor coding DNA for every test compound at the highest tested concentration to exclude unspecific effects.
(§3) Supplementary Figure 2. Dose-response curves for RXRα activation. Compounds were tested in specific hybrid reporter gene assays for RXRα, RXRβ and RXRγ modulation.^1–3 These assays rely on a constitutively expressed hybrid receptor composed of the respective human RXR ligand binding domain and the DNA binding domain of the Gal4 receptor from yeast. A Gal4 responsive firefly luciferase was used as reporter gene and constitutively expressed renilla luciferase served as internal control for transfection efficiency and test compound toxicity. […]

In experiment [2] the test system is angiopoietin like protein 4 (ANGPTL4) mRNA in HepG2 cells. The experiment in a line: Target gene quantification (quantitative real-time PCR), ANGPTL4. The note with it: HepG2, 7 at 30 µM versus bexarotene at 1 µM, 8 h, qRT-PCR. As to the method:
(§4) Moreover, 7 was characterized for its ability to modulate RXR target gene expression under more physiological conditions. Hepatoma cells (HepG2) were incubated with 7 (30 µM) or reference RXR agonist bexarotene (9, 1 µM) for eight hours and mRNA expression of RXR regulated genes ATP-binding cassette transporter A1 (ABCA1), angiopoietin like protein 4 (ANGPTL4) and apolipoprotein E (ApoE) was analysed by quantitative real-time PCR.
HepG2 cells were incubated with test compound 7 (30 µM) or bexarotene (1 µM) as positive control each dissolved in 0.1% DMSO or 0.1% DMSO alone as untreated control for 8 h, harvested, washed with cold phosphate buffered saline (PBS) and then directly used for RNA extraction with the Total RNA Mini Kit (R6834-02, Omega Bio-Tek, Inc., Norcross, GA, USA). 2 µg RNA were reverse-transcribed into cDNA using the High-Capacity cDNA Reverse Transcription Kit (4368814, Thermo Fischer Scientific, Inc.). RXR target gene expression was evaluated by quantitative real time PCR analysis with a StepOnePlus™ System (Life Technologies, Carlsbad, CA, USA) using PowerSYBRGreen (Life Technologies; 12.5 µl per well) and the primers reported in Supplementary Table 4[58]. […] The expression was quantified by the comparative ∆∆Ct method. […] Results are expressed as mean ± standard error of the mean (SEM) relative mRNA expression compared to DMSO (0.1%) control which was set as 1.
(In general: In qPCR the cycle at which signal appears reflects the starting amount.)

Experiment [3] has as its system Gal4-responsive reporter gene. The experiment in a line: Control experiment without Gal4-RXR hybrid receptor (reporter gene construct and renilla luciferase only). As to the method:
as §4
as §2, with “All hybrid assays were validated with reference agonists (PPARα: GW7647; PPARγ: pioglitazone; PPARδ: L165,041; LXRα/β: T0901317; FXR: GW4064; RXRs: bexarotene; RARs: tretinoin; VDR: calcitriol; CAR: CITCO; PXR: SR12813) which yielded EC50 values in agreement with literature. The assays were conducted in duplicates with at least two independent repeats and for active compounds repeated without hybrid receptor coding DNA for every test compound at the highest tested concentration to exclude unspecific effects.” left out
A general note: In a reporter assay the amount or activity of a reporter protein is the signal.

The target in experiment [4] is T2, LXRβ (Homo sapiens, UniProt P55055).
T2 construct: expressed in transfected cells; host or cells: HEK293T
T2 sequence (P55055 222-460 limits assumed): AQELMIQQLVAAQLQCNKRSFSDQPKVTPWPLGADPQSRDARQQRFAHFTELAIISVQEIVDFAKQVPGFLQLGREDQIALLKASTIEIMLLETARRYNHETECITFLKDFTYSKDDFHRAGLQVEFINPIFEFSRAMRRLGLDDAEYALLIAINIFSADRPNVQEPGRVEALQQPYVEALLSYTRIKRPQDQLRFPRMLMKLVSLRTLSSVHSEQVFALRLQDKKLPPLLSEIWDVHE
The experiment in a line: Gal4 hybrid reporter gene assay LXRβ (selectivity profiling). On the procedure: as §4
as §2, with “All hybrid assays were validated with reference agonists (PPARα: GW7647; PPARγ: pioglitazone; PPARδ: L165,041; LXRα/β: T0901317; FXR: GW4064; RXRs: bexarotene; RARs: tretinoin; VDR: calcitriol; CAR: CITCO; PXR: SR12813) which yielded EC50 values in agreement with literature. The assays were conducted in duplicates with at least two independent repeats and for active compounds repeated without hybrid receptor coding DNA for every test compound at the highest tested concentration to exclude unspecific effects.” left out

Experiment [5] concerns the target T3, human RXRβ ligand binding domain (Gal4 hybrid receptor) (Homo sapiens, UniProt P28702).
T3 construct: expressed in transfected cells; host or cells: HEK293T
T3 sequence (P28702 296-529 limits assumed): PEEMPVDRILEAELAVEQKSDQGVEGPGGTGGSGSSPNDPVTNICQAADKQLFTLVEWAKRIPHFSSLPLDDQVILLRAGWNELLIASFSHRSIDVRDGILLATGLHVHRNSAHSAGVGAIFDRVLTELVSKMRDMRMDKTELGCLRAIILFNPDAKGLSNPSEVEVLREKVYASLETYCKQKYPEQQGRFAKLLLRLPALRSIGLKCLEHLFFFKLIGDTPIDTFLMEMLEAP
The experiment in a line: Gal4 hybrid reporter gene assay RXRβ. The following applies: HEK293T cells, n ≥ 4, read-out: RXRβ EC50 ± SEM. As to the method: as §1, §2, §3

As usually defined, the EC50 is the concentration that produces a half-maximal response. For the molecule `CC(C)(C)c1cc(/C=N/NC(=O)c2ccc(N)cc2)cc(C(C)(C)C)c1` [Compound 7], the EC50 was determined as 32.1 ± 0.9 µM in experiment [1] and 25.1 ± 0.1 µM in experiment [5]. Further, the “induction of ANGPTL4 mRNA expression” value in experiment [2] is listed as “comparable efficacy as RXR agonist bexarotene”. In addition, the “reporter transactivation without hybrid receptor” value in experiment [3] was “no reporter transactivation”. For the same molecule, the “activity on LXRβ” value in experiment [4] is listed as “no activity”.
